Data: ChEMBL document CHEMBL1201862, “PubChem BioAssay data set” (2004)
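Compound exposure: 48 hours, 5 concentrations, 96-well plates. Abbreviation: GI50, concentration required for 50% inhibition of growth.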 Activity calls are given as the source filed them. Cut-off read from the data, not from the text of the source: active = GI50 up to about 1.1 µM and inactive = higher.

Columns and labels:
Experiment in all cases: NCI anticancer screen, dose series, 48 h
UACC-62 = tested on: UACC-62
NCI/ADR-RES = tested on: NCI/ADR-RES
PC-3 = tested on: PC-3
RPMI-8226 = tested on: RPMI-8226
EKVX = tested on: EKVX
SK-MEL-5 = tested on: SK-MEL-5
K562 = tested on: K562
UO-31 = tested on: UO-31
RXF 393 = tested on: RXF 393
MOLT-4 = tested on: MOLT-4
HCC 2998 = tested on: HCC 2998
A498 = tested on: A498
HT-29 = tested on: HT-29
SW-620 = tested on: SW-620
SF-539 = tested on: SF-539
HL-60 = tested on: HL-60
TK-10 = tested on: TK-10
Malme-3M = tested on: Malme-3M
MCF7 = tested on: MCF7
UACC-257 = tested on: UACC-257

Structure (SMILES) | GI50 (UACC-62) | GI50 (NCI/ADR-RES) | GI50 (PC-3) | GI50 (RPMI-8226) | GI50 (EKVX) | GI50 (SK-MEL-5) | GI50 (K562) | GI50 (UO-31) | GI50 (RXF 393) | GI50 (MOLT-4) | GI50 (HCC 2998) | GI50 (A498) | GI50 (HT-29) | GI50 (SW-620) | GI50 (SF-539) | GI50 (HL-60) | GI50 (TK-10) | GI50 (Malme-3M) | GI50 (MCF7) | GI50 (UACC-257)
O=[N+]([O-])c1cc([As](Br)c2ccc(O)c([N+](=O)[O-])c2)ccc1O | 1.47 µM (inactive) | 2.77 µM (inactive) | 1.95 µM (inactive) | 0.208 µM (active) | 1.87 µM (inactive) | 1.49 µM (inactive) | 0.462 µM (active) | 1.61 µM (inactive) | 1.56 µM (inactive) | 0.259 µM (active) | 1.02 µM (active) | 1.95 µM (inactive) | 3.43 µM (inactive) | 0.733 µM (active) | 1.77 µM (inactive) | 1.17 µM (inactive) | 1.58 µM (inactive) | 0.632 µM (active) | 1.27 µM (inactive) | 1.69 µM (inactive)
COc1cc2c(c3c1c(=O)c1ccccc1n3C)C=CC1(CCCCC1)O2 | 4.14 µM (inactive) | 3.65 µM (inactive) | 3.78 µM (inactive) | 0.455 µM (active) | > 7.94 µM (inactive) | 2.15 µM (inactive) | 1.56 µM (inactive) | 0.1 µM (active) | 0.822 µM (active) | 3.11 µM (inactive) | 4.59 µM (inactive) | 5.96 µM (inactive) | 2.61 µM (inactive) | 6.92 µM (inactive) | 1.57 µM (inactive) | 3.88 µM (inactive) | > 8.95 µM (inactive) | 3.43 µM (inactive) | 2.31 µM (inactive) | > 7.73 µM (inactive)
CC(=O)OCC1OC(n2cnc3nc(Br)[nH]c(=O)c32)C(OC(C)=O)C1OC(C)=O (stereo not given) | > 100 µM (inactive) | > 100 µM (inactive) | > 100 µM (inactive) | > 100 µM (inactive) | > 100 µM (inactive) | > 100 µM (inactive) | > 100 µM (inactive) | > 100 µM (inactive) | > 100 µM (inactive) | > 100 µM (inactive) | > 100 µM (inactive) | > 100 µM (inactive) | > 100 µM (inactive) | > 100 µM (inactive) | > 100 µM (inactive) | > 100 µM (inactive) | > 100 µM (inactive) | > 100 µM (inactive) | 62.4 µM (inactive) | > 100 µM (inactive)
c1cc2nsnc2c2c[nH]cc12 | 42.9 µM (inactive) | 61.5 µM (inactive) | 45.1 µM (inactive) | > 100 µM (inactive) | 26.9 µM (inactive) | 61.4 µM (inactive) | 49.1 µM (inactive) | 25.5 µM (inactive) | 52.7 µM (inactive) | 85.3 µM (inactive) | > 100 µM (inactive) | 24.7 µM (inactive) | > 100 µM (inactive) | > 100 µM (inactive) | > 100 µM (inactive) | 67.1 µM (inactive) | > 100 µM (inactive) | > 100 µM (inactive) | 34.7 µM (inactive) | > 100 µM (inactive)
C=C1CC[C@@H](CCC2CCC3(OC2)O[C@]2(O)CC[C@@]3(C)OC2(C)C)C(C)(C)[C@H]1C/C=C1\CCOC1=O (stereo not given in full) | 27 µM (inactive) | 1.78 µM (inactive) | 4.61 µM (inactive) | 1.9 µM (inactive) | 1.11 µM (active) | 0.0244 µM (active) | 0.0798 µM (active) | 30.3 µM (inactive) | 14.9 µM (inactive) | 1.97 µM (inactive) | 10.9 µM (inactive) | 13.3 µM (inactive) | 4.93 µM (inactive) | 33.3 µM (inactive) | 5.3 µM (inactive) | 1.36 µM (inactive) | 39.5 µM (inactive) | 16.7 µM (inactive) | 1.76 µM (inactive) | 0.507 µM (active)
COC1=CC2(CC(OC)=C1OC)OC21COc2ccccc2C1=O (stereo not given) | 60.1 µM (inactive) | 85.7 µM (inactive) | 84.5 µM (inactive) | 51.5 µM (inactive) | 39.4 µM (inactive) | 43 µM (inactive) | 56.2 µM (inactive) | 5.16 µM (inactive) | 46 µM (inactive) | 23 µM (inactive) | > 100 µM (inactive) | > 100 µM (inactive) | 51.4 µM (inactive) | > 100 µM (inactive) | > 100 µM (inactive) | 32.4 µM (inactive) | > 100 µM (inactive) | > 100 µM (inactive) | 55.7 µM (inactive) | 44.4 µM (inactive)
CCOC(=O)c1nnc2c(C(=O)OCC)c3ccccc3n2c1N | 2.43 µM (inactive) | 3.61 µM (inactive) | 5.35 µM (inactive) | 1.54 µM (inactive) | 25.8 µM (inactive) | 5.52 µM (inactive) | 11.2 µM (inactive) | 7.87 µM (inactive) | > 100 µM (inactive) | 4.41 µM (inactive) | 34 µM (inactive) | 4.85 µM (inactive) | 22.8 µM (inactive) | 8.26 µM (inactive) | 5.66 µM (inactive) | 2.15 µM (inactive) | 7.91 µM (inactive) | 2.1 µM (inactive) | 13.1 µM (inactive) | 2.09 µM (inactive)
CCSCCC(N)C(=O)O (stereo not given) | > 100 µM (inactive) | > 100 µM (inactive) | > 100 µM (inactive) | > 100 µM (inactive) | > 100 µM (inactive) | > 100 µM (inactive) | > 100 µM (inactive) | > 100 µM (inactive) | > 100 µM (inactive) | > 100 µM (inactive) | > 100 µM (inactive) | > 100 µM (inactive) | > 100 µM (inactive) | > 100 µM (inactive) | > 100 µM (inactive) | > 100 µM (inactive) | > 100 µM (inactive) | > 100 µM (inactive) | > 100 µM (inactive) | > 100 µM (inactive)
Cn1c(-c2ccco2)ccc1-c1ccc(C=O)o1 | 60.3 µM (inactive) | 33 µM (inactive) | > 100 µM (inactive) | 29 µM (inactive) | 48.8 µM (inactive) | 64.1 µM (inactive) | 37.5 µM (inactive) | 46.7 µM (inactive) | > 100 µM (inactive) | 23.3 µM (inactive) | > 100 µM (inactive) | 92.3 µM (inactive) | 44.9 µM (inactive) | 33.4 µM (inactive) | 21.5 µM (inactive) | 21.5 µM (inactive) | > 100 µM (inactive) | > 100 µM (inactive) | 30.5 µM (inactive) | > 100 µM (inactive)
O=C1CNCCCN2CCN(CCCNCC(=O)Nc3ccc(cc3)S(=O)(=O)c3ccc(cc3)NC(=O)CNCCCN3CCN(CCCNCC(=O)Nc4ccc(cc4)S(=O)(=O)c4ccc(cc4)N1)CC3)CC2 | 32.9 µM (inactive) | 40.3 µM (inactive) | 42.3 µM (inactive) | 29.2 µM (inactive) | 36.6 µM (inactive) | 25.1 µM (inactive) | 22.3 µM (inactive) | 61 µM (inactive) | 28.6 µM (inactive) | 19.4 µM (inactive) | 21.2 µM (inactive) | 20.7 µM (inactive) | 27.2 µM (inactive) | 31.4 µM (inactive) | 19.5 µM (inactive) | 0.433 µM (active) | 20.8 µM (inactive) | 11.9 µM (inactive) | 46.1 µM (inactive) | 17 µM (inactive)
C/C(Cl)=N/OC(=O)Nc1ccc(F)c([N+](=O)[O-])c1 | 21.3 µM (inactive) | 30.3 µM (inactive) | 17.8 µM (inactive) | 2.65 µM (inactive) | 16.3 µM (inactive) | 14 µM (inactive) | 2.57 µM (inactive) | 8.05 µM (inactive) | 12.1 µM (inactive) | 1.78 µM (inactive) | 37.3 µM (inactive) | 19.5 µM (inactive) | 19.6 µM (inactive) | 3.71 µM (inactive) | 33.3 µM (inactive) | 1.94 µM (inactive) | 6.1 µM (inactive) | 2.65 µM (inactive) | 15.2 µM (inactive) | 20.7 µM (inactive)
